Measurements reported in patent US11938123B2, “Use of 2,3,5-substituted thiophene compound to prevent, ameliorate, or treat breast cancers” (Pharos iBio Co., Ltd., priority 2018, dated 2024).

Tests used:
[1] = system: BT474; test: Breast cancer cell line viability, PHI-101 alone (Example 1); assay type: cell-based; conditions: Homo sapiens, BT-474; BT474, non-triple-negative breast cancer; 72 hours; Celltiter-Glo
Experimental: (§1) Each of the breast cancer cell lines shown in Table 1 below was cultured with DMEM (Dulbecco's Modified Eagle Medium) or RPMI1640 in a 100-mm culture dish (SPL) under 5% CO2 at 37° C., and then diluted to a density of 3,000 cells/90 μl using PBS (phosphate-buffered saline) (Biosesang).
(§2) Next, 90 μl of each of the diluted breast cancer cell lines was treated with 10 μl of a 1:2 serial dilution of a hydrochloride salt of the compound represented by Formula 1 (hereinafter referred to as “PHI-101”) to a final concentration of up to 100 μM, and then cultured under 5% CO2 at 37° C. for 72 hours. After culture, the cells were counted using a Celltiter-Glo assay kit (Promega), and cell viability was measured by expressing the cell count as a percentage relative to that of a control group not treated with PHI-101.
(§3) The IC50 of PHI-101 for each breast cancer cell line was calculated by sigmoidal curve fitting using the PRIZM software, and the results of the calculation are shown in Table 2 below. It was confirmed that PHI-101 had excellent ability to inhibit the breast cancer cell lines, and that PHI-101 also had excellent ability to inhibit the triple-negative breast cancer cell lines (FIGS. 1 to 3).

[2] = system: BT549; test: as above; assay type: cell-based; conditions: Homo sapiens, BT-549; BT549, triple-negative breast cancer; 72 hours; Celltiter-Glo
Experimental: as §1, §2, §3

[3] = system: HCC1937; test: as above; assay type: cell-based; conditions: Homo sapiens; HCC1937, triple-negative breast cancer; 72 hours; Celltiter-Glo
Experimental: as §1, §2, §3

[4] = system: HS578T; test: as above; assay type: cell-based; conditions: Homo sapiens, Hs-578T, triple-negative breast cancer, 72 hours, Celltiter-Glo
Experimental: as §1, §2, §3

[5] = system: JIMT1; test: as above; assay type: cell-based; conditions: Homo sapiens, JIMT-1; JIMT1, non-triple-negative breast cancer; 72 hours; Celltiter-Glo
Experimental: as §1, §2, §3

[6] = system: MCF7; test: as above; assay type: cell-based; conditions: Homo sapiens; MCF7, non-triple-negative breast cancer; 72 hours; Celltiter-Glo
Experimental: as §1, §2, §3

[7] = system: MDA-MB-231; test: as above; assay type: cell-based; conditions: Homo sapiens; MDA-MB-231, triple-negative breast cancer; 72 hours; Celltiter-Glo
Experimental: as §1, §2, §3

[8] = system: MDA-MB-435; test: as above; assay type: cell-based; conditions: Homo sapiens; MDA-MB-435, triple-negative breast cancer; 72 hours; Celltiter-Glo
Experimental: as §1, §2, §3

[9] = system: MDA-MB-468; test: as above; assay type: cell-based; conditions: Homo sapiens; MDA-MB-468, triple-negative breast cancer; 72 hours; Celltiter-Glo
Experimental: as §1, §2, §3

[10] = system: SK-BR-3; test: as above; assay type: cell-based; conditions: Homo sapiens; SK-BR-3, non-triple-negative breast cancer; 72 hours; Celltiter-Glo
Experimental: as §1, §2, §3

[11] = system: T47D; test: as above; assay type: cell-based; conditions: Homo sapiens, non-triple-negative breast cancer, 72 hours, Celltiter-Glo
Experimental: as §1, §2, §3

[12] = system: ZR-75-1; test: as above; assay type: cell-based; conditions: Homo sapiens; ZR-75-1, non-triple-negative breast cancer; 72 hours; Celltiter-Glo
Experimental: as §1, §2, §3

[13] = system: BT474; test: Cell viability, PHI-101 alone or with cisplatin (Example 2); assay type: cell-based; conditions: Homo sapiens, BT-474, medium instead of cisplatin, 72 hours
Experimental: (§4) Each of the breast cancer cell lines shown in Table 3 below was cultured using RPMI-1640 in a 100-mm culture dish, and then diluted to a density of 3,000 cells/90 μl using PBS.
(§5) Thereafter, 90 μl of each of the diluted breast cancer cell lines was treated with 10 μl of a 1:2 serial dilution of a hydrochloride salt of PHI-101 to a final concentration of up to 100 μM and cultured under 5% CO2 at 37° C. for 1 hour, and then treated with cisplatin at an IC50 concentration for each cell line. Groups treated with PHI-101 alone were additionally treated with 10 μl of medium instead of cisplatin. Next, each of the cell lines was cultured under 5% CO2 at 37° C. for 72 hours. Next, the cells were counted using a Celltiter-Glo assay kit (Promega), and cell viability was measured by expressing the cell count as a percentage relative to that of a control group not treated with PHI-101 and cisplatin.
(§6) IC50 for each breast cancer cell line was calculated by sigmoidal curve fitting using the PRIZM software, and the results of the calculation are shown in Table 4 below.

[14] = system: BT549; test: as above; assay type: cell-based; conditions: Homo sapiens, BT-549; BT549 (triple-negative); medium instead of cisplatin; 72 hours
Experimental: as §4, §5, §6

[15] = system: MCF7; test: as above; assay type: cell-based; conditions: Homo sapiens, medium instead of cisplatin, 72 hours
Experimental: as §4, §5, §6

[16] = system: T47D; test: as above; assay type: cell-based; conditions: Homo sapiens, medium instead of cisplatin, 72 hours
Experimental: as §4, §5, §6

[17] = system: ZR-75-1; test: as above; assay type: cell-based; conditions: Homo sapiens, medium instead of cisplatin, 72 hours
Experimental: as §4, §5, §6

[18] = system: MDA-MB-468; test: Tumor inhibitory activity in mice with MDA-MB-468 tumors (Example 5); assay type: in vivo, NOD SCID female mice; conditions: MDA-MB-468 tumors in mice; olaparib 50 mg/kg/day, PHI-101 60 mg/kg/day; treated 28 days
Experimental: The breast cancer cell line MDA-MB-468 was monolayer-cultured in an L-15 medium supplemented with 10% heat-inactivated fetal bovine serum under 5% CO2 at 37° C. The tumor cells were subcultured so as not to exceed passages 4 to 5 before confluence by trypsin-EDTA treatment. The tumor cells growing in an exponential growth phase were harvested and counted for tumor inoculation.
(§7) As mice, 6-8-week-old NOD SCID female mice (18 to 22 g) (GemPharmatech Co., Ltd) were prepared. The mice were quarantined for 7 days before use in the experiment, and mice with abnormal health were excluded from the experiment. The mice were housed in cages (300×180×150 mm) at 22±3° C. and a relative humidity of 40% to 70% under a 12-hour light/12-hour dark cycle. During the entire experimental period except for the period specified by the protocol, the mice were allowed to freely access sterilized dry granular food (Beijing Keaoxieli Feed Co., Ltd., Beijing, China) and water.
(§8) For tumor induction, MDA-MB-468 breast cancer cells (1×10^7) in 0.1 ml of a mixture (1:1) of L-15 and Matrigel (BD, cat. No. 356234) were injected subcutaneously into the right flank of each mouse. […] Then, five mice were allocated for each group so that the average tumor volume was the same between the groups at the time point of treatment.
Measurement of the tumor volume was performed with calipers twice a week. The tumor volume (TV) (mm^3) was calculated using the following equation. TV=a×b^2/2
The tumor growth inhibition (TGI) rate was calculated according to the following equation using the tumor volume. TGI (%)=(1−T/C)×100
T=final tumor volume of experimental group/initial tumor volume of experimental group
C=final tumor volume of control group/initial tumor volume of control group
In order to evaluate whether PHI-101 and/or olaparib affects tumor inhibition in the mice, the volume and growth inhibition rate of the tumor generated by the breast cancer cell line MDA-MB-468 transplanted into the mice were analyzed according to Example 5-1-6.

[19] = Mouse body weight change in MDA-MB-468 tumor model (Example 5); assay type: in vivo, NOD SCID female mice; conditions: MDA-MB-468 tumor mice; olaparib 50 mg/kg/day, PHI-101 60 mg/kg/day; 28 days; FIG. 14
Experimental: as §7, §8
The body weight of each mouse was measured twice a week, and the change (%) in body weight (BW) was calculated using the following equation. BW change (%)=(BWPG-Dx/BWPG-D1)×100
In order to evaluate whether PHI-101 and/or olaparib affected the body weight of each mouse, the change in the body weight of each mouse was analyzed according to Example 5-1-5.

[20] = system: JIMT-1; test: Tumor inhibitory activity in mice with Herceptin-resistant JIMT-1 tumors (Example 6); assay type: in vivo, NOD SCID female mice; conditions: JIMT-1 tumors in mice; PHI-101 60 mg/kg/day vs Herceptin 5 mg/kg/day; 3 weeks; FIG. 16
Experimental: The Herceptin-resistant breast cancer cell line JIMT-1 was monolayer-cultured in an L-15 medium supplemented with 10% heat-inactivated fetal bovine serum under 5% CO2 at 37° C. The tumor cells were subcultured so as not to exceed passages 4 to 5 before confluence by trypsin-EDTA treatment. The tumor cells growing in an exponential growth phase were harvested and counted for tumor inoculation.
As mice, 7-8-week-old NOD SCID female mice (20 to 22 g) (GemPharmatech Co., Ltd.) were prepared. The mice were quarantined for 7 days before use in the experiment, and mice with abnormal health were excluded from the experiment. The mice were housed in cages (300×180×150 mm) at 22±3° C. and a relative humidity of 40% to 70% under a 12-hour light/12-hour dark cycle. […]
Measurement of the tumor volume was performed with calipers twice a week. The tumor volume (TV) (mm^3) was calculated using the following equation. […]
The tumor growth inhibition (TGI) rate was calculated according to the following equation using the tumor volume. […]
In order to evaluate whether PHI-101 has an effect on tumor inhibition in the mice, the volume and growth inhibition rate of the tumor generated by the breast cancer cell line JIMT-1 transplanted into the mice were analyzed by performing Example 6-1-5.

[21] = system: BT474; test: Cell viability, olaparib alone or with PHI-101 (Example 3); assay type: cell-based; conditions: Homo sapiens, BT-474, medium instead of PHI-101, 72 hours
Experimental: (§9) Each of the breast cancer cell lines shown in Table 5 below was cultured with DMEM (Dulbecco's Modified Eagle Medium) or RPMI1640 in a 100-mm culture dish (SPL), and then diluted to a density of 3,000 cells/90 μl using PBS (phosphate-buffered saline) (Biosesang).
(§10) Thereafter, 90 μl of each of the diluted breast cancer cell lines was treated with 10 μl of a 1:2 serial dilution of olaparib to a final concentration of up to 100 μM, and cultured under 5% CO2 at 37° C. for 1 hour. Then, each breast cancer cell line was treated with a hydrochloride salt of PHI-101 to a final concentration of 1 μM. Groups treated with olaparib alone were additionally treated with 10μ of medium instead of PHI-101. Thereafter, each cell line was cultured under 5% CO2 at 37° C. for 72 hours. Then, the cells were counted using a Celltiter-Glo assay kit (Promega), and cell viability was measured by expressing the cell count as a percentage relative to that of a control group not treated with PHI-101 and olaparib.
(§11) IC50 for each breast cancer cell line was calculated by sigmoidal curve fitting using the PRIZM software, and the results of the calculation are shown in Table 6 below.

[22] = system: HS578T; test: as above; assay type: cell-based; conditions: Homo sapiens, Hs-578T; HS578T (triple-negative); medium instead of PHI-101; 72 hours
Experimental: as §9, §10, §11

[23] = system: JIMT1; test: as above; assay type: cell-based; conditions: Homo sapiens, JIMT-1, medium instead of PHI-101, 72 hours
Experimental: as §9, §10, §11

[24] = system: MCF7; test: as above; assay type: cell-based; conditions: Homo sapiens, medium instead of PHI-101, 72 hours
Experimental: as §9, §10, §11

[25] = system: MDA-MB-468; test: as above; assay type: cell-based; conditions: Homo sapiens; MDA-MB-468 (triple-negative); medium instead of PHI-101; 72 hours
Experimental: as §9, §10, §11

[26] = system: SK-BR-3; test: as above; assay type: cell-based; conditions: Homo sapiens, medium instead of PHI-101, 72 hours
Experimental: as §9, §10, §11

[27] = system: T47D; test: as above; assay type: cell-based; conditions: Homo sapiens, medium instead of PHI-101, 72 hours
Experimental: as §9, §10, §11

[28] = system: ZR-75-1; test: as above; assay type: cell-based; conditions: Homo sapiens, medium instead of PHI-101, 72 hours
Experimental: as §9, §10, §11

## NC(=O)Nc1cc(C#Cc2cccc(F)c2)sc1C(=O)N[C@H]1CCCNC1 [PHI-101, (S)-5-((3-fluorophenyl)ethynyl)-N-(piperidin-3-yl)-3-ureido thiophene-2-carboxamide]
[1]
  IC50: 14.7 µM
[2]
  IC50: 1.63 µM
[3]
  IC50: 4.03 µM
[4]
  IC50: 1.8 µM
[5]
  IC50: 0.27 µM
[6]
  IC50: 3.71 µM
[7]
  IC50: 4.97 µM
[8]
  IC50: 1.51 µM
[9]
  IC50: 3.74 µM
[10]
  IC50: 4.11 µM
[11]
  IC50: 17.8 µM
[12]
  IC50: 11.4 µM
[13]
  IC50: 14.3 µM
[14]
  IC50: 1.71 µM
[15]
  IC50: 3.23 µM
[16]
  IC50: 19.2 µM
[17]
  IC50: 11.8 µM
[18]
  T/C: 84%
  TGI: 16%
  Tumor volume (52 days): 443 ± 18 mm^3
[19]
  Change in the body weight of each mouse: no significant change
[20]
  Growth inhibition rate of the Herceptin-resistant tumor, compared with Herceptin group: higher

## O=C(c1cc(Cc2n[nH]c(=O)c3ccccc23)ccc1F)N1CCN(C(=O)C2CC2)CC1 [olaparib]
[21]
  IC50: 74.6 µM
[22]
  IC50: 186 µM
[23]
  IC50: 520 µM
[24]
  IC50: 98 µM
[25]
  IC50: 47.1 µM
[26]
  IC50: 127 µM
[27]
  IC50: 77 µM
[28]
  IC50: 352 µM
[18]
  T/C: 76%
  TGI: 24%
  Tumor volume (52 days): 402 ± 25 mm^3
[19]
  Change in the body weight of each mouse: no significant change
